This note sets out measurements from patent publication US11174252B2, “Heterocyclic compounds as kinase inhibitors” (priority 2018, dated 2021).

Each structure is given as a SMILES string. Structures can show the parent of a compound that is named as a salt. Where two headings read alike, the source gives them in different places.

Broadly, the inhibition is the drop in the measured response relative to a control, in per cent.

One assay relates to HCT-116. Put plainly: Cancer cell proliferation assay, single agent. Format: cell-based. The settings on record: Homo sapiens, Treatment Duration 72 h, read-out: IC50 HCT116.
The target of the next assay is CDK1 (cyclin B) (Homo sapiens (Human), UniProt P06493). In words: Z'-LYTE kinase assay. It is filed as biochemical. The source says: The following equations were used for Z′-LYTE™ Screening Assay Data Analysis.
In the next assay the target is PI3Kδ kinase (Homo sapiens (Human), UniProt O00329). In words: PI3Kδ kinase ADP-Glo assay (Reaction Biology Corporation). The settings on record: read-out: PI3Kδ IC50. For orientation: ADP-Glo turns the ADP formed in a reaction into a luminescent signal.
The subject of another assay is MCF-7. Put plainly: Cancer cell proliferation assay, single agent. It is filed as cell-based. The conditions noted are these: Homo sapiens, read-out: IC50 MCF-7.
For a further assay, the target named is CDK2 (cyclin A) (Homo sapiens (Human), UniProt P24941). In words: Z'-LYTE kinase assay. Format: biochemical. The protocol: IC50 values of compounds against CDK2 (cyclin A) were determined by Z'-LYTETM. […] The following equations were used for Z'-LYTETM Screening Assay Data Analysis.
The next assay deals with BT-549. In words: Cancer cell proliferation assay, single agent. It is filed as cell-based. The conditions noted are these: Homo sapiens, BT-549, 24 h, read-out: IC50 BT-549.
For assay [1], the system named is pRb (Ser780 phosphorylation state of RB1) in MCF-7 cells. In words: Determination of pRb levels (Ser780 phosphorylation of RB1, ELISA) in MCF-7 cells. The conditions noted are these: Homo sapiens, 24 h; for inhibition at 0.01 µM: MCF7, 0.01 μM; for inhibition at 0.1 µM: MCF7, 0.1 μM; for inhibition at 1 µM: MCF7, 1 μM. It is filed as cell-based. As to the method:
[…] of the retinoblastoma protein (pRb) by cyclin D:Cdk4/6 complexes results in […] pRb, which is a clinically relevant biomarker associated with CDK4 or CDK6 inhibition. As a confirmatory measure of functional activity of CDK4/6, the Ser780 phosphorylation state of RB1 was assessed. MCF-7 cells were plated at 2.5×10^5 to 3.0×10^6 cells/well in 6-well cell-culture plates and incubated at 37° C. for 24 h in MEM medium supplemented with 10% FBS. Cells were treated for 24 h with a medium containing test compound at various concentrations (e.g., 0.01, 0.1, 1 μM) or with DMSO (≤1%) in duplicate. After incubation period, the media was removed, and cells were rinsed once with ice-cold PBS and lysed with 0.2 mL of Cell Lysis Buffer containing 1 mM PMSF and Protease Inhibitor. Protein concentration was estimated following Bradford method. The lysis and the pRB measurements were performed following the manufacturer's ELISA kit protocols and buffers (Cell Signaling Technology, Cat. No.: 13016C). pRb inhibition of test compounds were calculated as percentage of vehicle control.
Background: An ELISA detects its analyte on a solid surface through an enzyme-linked reagent.

In another assay the test system is A549. Put plainly: Cancer cell proliferation assay, single agent. Format: cell-based. The conditions noted are these: Homo sapiens, A549, 72 h, read-out: IC50 A549.
The next assay concerns the target CDK2 (cyclin E1) (Homo sapiens (Human), UniProt P24941). Put plainly: LanthaScreen Eu Kinase Binding Assay. The settings on record: read-out: CDK2/E IC50.
The next assay relates to DU4475. In words: Cancer cell proliferation assay, single agent. Format: cell-based. The settings on record: Homo sapiens, DU-4475, 168 h, read-out: IC50 DU4475.
In a further assay the target is FMS kinase (Homo sapiens (Human), UniProt P07333). Put plainly: LanthaScreen kinase assay (ATP, fluorescent-PolyGT substrate, TR-FRET). It is filed as biochemical. (Time-resolved FRET reads energy transfer from a long-lived donor to a nearby acceptor.)
In the next assay the test system is Hs-578T. In words: Cancer cell proliferation assay, single agent. It is filed as cell-based. The settings on record: Homo sapiens, Treatment Duration 24 h.
In a further assay the test system is ZR-75-30. In words: Cancer cell proliferation assay, single agent. It is filed as cell-based. The settings on record: Homo sapiens, Treatment Duration 24 h.
In another assay the target is CDK6 (Homo sapiens (Human), UniProt Q00534). Put plainly: biochemical. It is filed as biochemical.
The target of a further assay is CDK4 (Homo sapiens (Human), UniProt P11802). Put plainly: In vitro kinase inhibition, luminescence (ADP-Glo) with retinoblastoma substrate. It is filed as biochemical.
Chain of CDK4 (P11802 whole entry): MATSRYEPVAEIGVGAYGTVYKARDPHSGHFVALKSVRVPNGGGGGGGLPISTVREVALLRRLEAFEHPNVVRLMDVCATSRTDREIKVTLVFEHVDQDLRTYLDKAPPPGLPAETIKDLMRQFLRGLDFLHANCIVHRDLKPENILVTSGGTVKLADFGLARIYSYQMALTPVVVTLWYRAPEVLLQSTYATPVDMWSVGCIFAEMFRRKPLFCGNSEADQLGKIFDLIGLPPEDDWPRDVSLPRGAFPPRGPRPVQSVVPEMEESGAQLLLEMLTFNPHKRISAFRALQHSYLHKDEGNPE
Chain of CDK4 (P24385 whole entry partner): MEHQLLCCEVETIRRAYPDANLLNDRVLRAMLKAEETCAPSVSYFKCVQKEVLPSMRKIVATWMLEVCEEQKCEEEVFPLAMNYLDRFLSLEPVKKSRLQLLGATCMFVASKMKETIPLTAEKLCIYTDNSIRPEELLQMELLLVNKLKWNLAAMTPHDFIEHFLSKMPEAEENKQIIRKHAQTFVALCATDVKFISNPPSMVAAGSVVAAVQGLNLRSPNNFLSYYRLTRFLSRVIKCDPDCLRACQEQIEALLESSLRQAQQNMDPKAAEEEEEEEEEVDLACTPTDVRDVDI

Chain of FMS kinase (P07333 20-972): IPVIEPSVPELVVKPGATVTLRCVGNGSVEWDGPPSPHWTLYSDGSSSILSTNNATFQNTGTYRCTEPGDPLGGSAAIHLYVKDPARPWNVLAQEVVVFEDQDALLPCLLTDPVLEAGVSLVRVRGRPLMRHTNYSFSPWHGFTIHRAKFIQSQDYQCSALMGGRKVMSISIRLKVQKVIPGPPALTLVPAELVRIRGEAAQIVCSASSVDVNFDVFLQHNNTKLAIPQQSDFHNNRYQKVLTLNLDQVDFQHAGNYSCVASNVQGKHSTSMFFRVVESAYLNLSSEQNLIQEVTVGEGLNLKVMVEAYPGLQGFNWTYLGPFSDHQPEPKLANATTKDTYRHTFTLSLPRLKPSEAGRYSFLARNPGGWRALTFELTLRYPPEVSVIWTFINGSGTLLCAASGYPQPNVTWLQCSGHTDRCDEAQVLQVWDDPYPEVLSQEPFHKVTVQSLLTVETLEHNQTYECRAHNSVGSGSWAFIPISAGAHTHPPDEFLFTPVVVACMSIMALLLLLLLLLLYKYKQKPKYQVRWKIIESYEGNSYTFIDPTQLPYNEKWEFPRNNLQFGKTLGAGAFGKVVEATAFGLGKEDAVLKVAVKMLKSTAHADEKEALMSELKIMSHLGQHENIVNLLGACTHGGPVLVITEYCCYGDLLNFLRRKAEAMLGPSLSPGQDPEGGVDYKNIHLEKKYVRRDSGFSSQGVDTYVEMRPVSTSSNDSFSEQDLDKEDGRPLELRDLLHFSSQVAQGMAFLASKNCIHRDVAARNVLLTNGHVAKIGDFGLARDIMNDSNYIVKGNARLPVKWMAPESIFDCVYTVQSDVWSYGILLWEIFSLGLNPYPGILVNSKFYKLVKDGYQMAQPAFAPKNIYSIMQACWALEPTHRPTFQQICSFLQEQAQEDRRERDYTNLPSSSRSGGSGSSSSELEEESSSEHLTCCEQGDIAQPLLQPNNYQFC
Chain of PI3Kδ kinase (O00329 whole entry): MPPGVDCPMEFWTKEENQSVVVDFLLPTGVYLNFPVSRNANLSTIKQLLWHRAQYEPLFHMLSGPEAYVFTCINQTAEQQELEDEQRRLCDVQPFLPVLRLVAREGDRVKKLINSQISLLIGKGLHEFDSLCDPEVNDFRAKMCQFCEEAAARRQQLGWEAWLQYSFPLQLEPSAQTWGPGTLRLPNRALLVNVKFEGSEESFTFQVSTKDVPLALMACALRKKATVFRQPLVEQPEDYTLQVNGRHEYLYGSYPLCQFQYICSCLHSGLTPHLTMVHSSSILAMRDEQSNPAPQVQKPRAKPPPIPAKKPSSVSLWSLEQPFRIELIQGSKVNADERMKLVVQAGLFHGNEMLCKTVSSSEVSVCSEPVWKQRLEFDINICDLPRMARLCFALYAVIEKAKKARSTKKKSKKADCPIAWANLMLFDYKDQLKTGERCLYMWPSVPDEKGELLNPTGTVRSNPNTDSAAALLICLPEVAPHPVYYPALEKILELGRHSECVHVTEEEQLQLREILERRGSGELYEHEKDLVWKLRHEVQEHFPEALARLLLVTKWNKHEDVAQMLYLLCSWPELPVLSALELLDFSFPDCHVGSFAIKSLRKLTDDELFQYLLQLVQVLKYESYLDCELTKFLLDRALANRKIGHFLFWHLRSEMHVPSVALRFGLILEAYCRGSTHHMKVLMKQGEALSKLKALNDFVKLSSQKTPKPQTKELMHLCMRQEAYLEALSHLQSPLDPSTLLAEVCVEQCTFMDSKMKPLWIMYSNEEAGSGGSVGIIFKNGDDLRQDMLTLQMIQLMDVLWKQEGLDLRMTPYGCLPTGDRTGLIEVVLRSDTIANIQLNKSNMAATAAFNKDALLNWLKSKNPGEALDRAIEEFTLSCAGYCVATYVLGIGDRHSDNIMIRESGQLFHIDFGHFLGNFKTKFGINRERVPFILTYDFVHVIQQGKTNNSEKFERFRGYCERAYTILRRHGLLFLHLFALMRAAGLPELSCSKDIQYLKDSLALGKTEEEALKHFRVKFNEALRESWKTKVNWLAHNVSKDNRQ
Chain of PI3Kδ kinase (P27986 whole entry partner): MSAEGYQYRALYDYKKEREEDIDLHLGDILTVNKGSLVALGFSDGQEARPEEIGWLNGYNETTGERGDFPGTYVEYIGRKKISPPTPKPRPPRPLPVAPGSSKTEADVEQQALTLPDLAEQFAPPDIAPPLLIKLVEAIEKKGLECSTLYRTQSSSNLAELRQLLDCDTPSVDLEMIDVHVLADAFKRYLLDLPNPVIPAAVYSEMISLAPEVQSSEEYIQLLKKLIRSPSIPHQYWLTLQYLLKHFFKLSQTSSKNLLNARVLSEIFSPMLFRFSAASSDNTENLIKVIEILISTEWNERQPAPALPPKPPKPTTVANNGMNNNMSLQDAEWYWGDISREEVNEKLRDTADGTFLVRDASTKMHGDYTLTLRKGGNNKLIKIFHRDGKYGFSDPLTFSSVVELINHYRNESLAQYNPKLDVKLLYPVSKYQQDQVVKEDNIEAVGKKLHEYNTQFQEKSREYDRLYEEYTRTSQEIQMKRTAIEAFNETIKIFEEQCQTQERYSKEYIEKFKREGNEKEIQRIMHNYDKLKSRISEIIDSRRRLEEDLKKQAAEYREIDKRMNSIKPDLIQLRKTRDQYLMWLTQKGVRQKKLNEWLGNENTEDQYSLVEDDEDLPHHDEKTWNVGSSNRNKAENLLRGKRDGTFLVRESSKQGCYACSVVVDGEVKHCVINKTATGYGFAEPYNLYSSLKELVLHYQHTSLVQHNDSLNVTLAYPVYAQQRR
Chain of CDK1 (cyclin B) (P06493 whole entry): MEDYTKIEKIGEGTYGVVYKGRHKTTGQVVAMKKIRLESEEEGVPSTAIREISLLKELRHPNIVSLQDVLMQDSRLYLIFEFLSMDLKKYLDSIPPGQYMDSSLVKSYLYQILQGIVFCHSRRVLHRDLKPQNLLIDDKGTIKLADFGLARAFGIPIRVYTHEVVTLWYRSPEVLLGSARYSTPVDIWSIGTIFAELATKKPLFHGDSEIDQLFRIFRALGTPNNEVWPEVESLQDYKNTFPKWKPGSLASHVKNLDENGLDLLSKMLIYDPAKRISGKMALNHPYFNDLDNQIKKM
Chain of CDK1 (cyclin B) (P14635 whole entry partner): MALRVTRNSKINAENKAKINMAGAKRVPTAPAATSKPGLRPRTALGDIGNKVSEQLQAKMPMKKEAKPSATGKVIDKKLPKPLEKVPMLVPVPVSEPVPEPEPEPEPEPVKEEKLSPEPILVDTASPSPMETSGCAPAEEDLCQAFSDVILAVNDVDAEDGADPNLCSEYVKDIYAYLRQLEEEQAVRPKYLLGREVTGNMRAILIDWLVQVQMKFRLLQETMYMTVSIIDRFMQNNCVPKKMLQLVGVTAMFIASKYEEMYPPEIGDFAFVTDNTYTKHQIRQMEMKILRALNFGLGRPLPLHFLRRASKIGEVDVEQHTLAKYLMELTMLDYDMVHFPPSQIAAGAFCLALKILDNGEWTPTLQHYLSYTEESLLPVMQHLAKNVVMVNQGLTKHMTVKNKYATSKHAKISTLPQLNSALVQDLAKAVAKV

`CC(C)N1CCOc2c(F)cc(-c3nc(Nc4ccc(N5CCNCC5)c(F)c4)ncc3F)cc21` [Compound 12, 5-fluoro-N-(3-fluoro-4-(piperazin-1-yl)phenyl)-4-(8-fluoro-4-isopropyl-3,4-dihydro-2H-benzo[b][1,4]oxazin-6-yl)pyrimidin-2-amine hydrochloride]: the IC50 in the assay on HCT-116 was below 13 nM; against CDK1 (cyclin B), 3.9 nM; at PI3Kδ kinase, 674 nM; in the assay on MCF-7 (MCF7, 72 h), below 10 nM; against CDK2 (cyclin A), 0.7 nM; in the assay with BT-549 it was 230 nM. In addition, the IC50 was below 13 nM in the assay with A549, 7.2 nM at CDK2 (cyclin E1), 40 nM with DU4475 and 29 nM on FMS kinase. Besides, in assay [1], the inhibition at 0.01 µM is -5%. Also, in [1], the inhibition at 0.1 µM was 81%. In [1], the inhibition at 1 µM amounted to 81%.
As for `CC(C)N1CCOc2c(F)cc(-c3nc(Nc4ccc(N5CCNCC5)cn4)ncc3F)cc21` [Compound 1, 5-fluoro-4-(8-fluoro-4-isopropyl-3,4-dihydro-2H-benzo[b][1,4]oxazin-6-yl)-N-(5-(piperazin-1-yl)pyridin-2-yl)pyrimidin-2-amine], the IC50 with Hs-578T was determined as 60 nM; with HCT-116, 515 nM; at PI3Kδ kinase it was 3360 nM; in the assay on MCF-7 (MCF7, Treatment Duration 72 h), 68 nM; in the assay on ZR-75-30 it was 49 nM; in the assay on BT-549, 3200 nM. Further, the IC50 on CDK6 worked out at 0.2 nM; against CDK4, 0.2 nM; in the assay with A549 it was 65 nM; in the assay on DU4475, 575 nM; against FMS kinase it was 1330 nM. The inhibition at 0.01 µM in [1] turned out to be 77%. The inhibition at 0.1 µM in assay [1] worked out at 80%. Besides, the inhibition at 1 µM in [1] is 89%.
